{"source": "the supplement of paper PMC10307832", "assay_in_all_cases": "relative viability (nuclei count vs DMSO), 5 days (fraction); higher = more cells survive", "key": {"[1]": {"compound": "CC[C@H](Nc1ncnc2[nH]cnc12)c1nc2cccc(F)c2c(=O)n1-c1ccccc1 [Idelalisib] + Nc1nc2[nH]cc(CCc3ccc(C(=O)N[C@@H](CCC(=O)O)C(=O)O)cc3)c2c(=O)[nH]1 [Pemetrexed] (partner 0.2 µM)", "method_in_brief": "(§1)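 Relative viability was taken as the ratio of nuclei in treated wells to nuclei in vehicle wells. Lung cancer cell lines in 1536-well plates received compounds by pin tool one day after seeding, either one drug alone or a fixed anchor-drug dose plus five library-drug doses (not always all listed) in √10 steps. Nuclei were counted on 4× images after 5 days of treatment, and values are medians of duplicate plates.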"}, "[2]": {"compound": "CC[C@H](Nc1ncnc2[nH]cnc12)c1nc2cccc(F)c2c(=O)n1-c1ccccc1 [Idelalisib] + Nc1ncn([C@H]2C[C@H](O)[C@@H](CO)O2)c(=O)n1 [Decitabine] (partner 2 µM)", "method_in_brief": "as §1"}, "[3]": {"compound": "Nc1nc2[nH]cc(CCc3ccc(C(=O)N[C@@H](CCC(=O)O)C(=O)O)cc3)c2c(=O)[nH]1 [Pemetrexed] + CC1(C)CCC(c2ccc(Cl)cc2)=C(CN2CCN(c3ccc(C(=O)NS(=O)(=O)c4ccc(N[C@H](CCN5CCOCC5)CSc5ccccc5)c(S(=O)(=O)C(F)(F)F)c4)cc3)CC2)C1 [Navitoclax] (partner 0.5 µM)", "method_in_brief": "as §1"}, "[4]": {"compound": "Nc1nc2[nH]cc(CCc3ccc(C(=O)N[C@@H](CCC(=O)O)C(=O)O)cc3)c2c(=O)[nH]1 [Pemetrexed] + COc1cccc2cc(-c3nc([C@H]4CC[C@H](C(=O)O)CC4)n4ncnc(N)c34)[nH]c12 [OSI-027] (partner 0.5 µM)", "method_in_brief": "as §1"}}, "data": [{"cell line": "UMC-11", "values": [{"measurement": "relative viability", "setting": "[1]; first compound 0.04 µM", "value": 0.673}, {"measurement": "relative viability", "setting": "[1]; first compound 0.1265 µM", "value": 0.77}, {"measurement": "relative viability", "setting": "[1]; first compound 0.4 µM", "value": 0.793}, {"measurement": "relative viability", "setting": "[1]; first compound 1.265 µM", "value": 0.839}, {"measurement": "relative viability", "setting": "[1]; first compound 4 µM", "value": 0.936}, {"measurement": "relative viability", "setting": "[2]; first compound 0.04 µM", "value": 0.698}, {"measurement": "relative viability", "setting": "[2]; first compound 0.1265 µM", "value": 0.595}, {"measurement": "relative viability", "setting": "[2]; first compound 0.4 µM", "value": 0.577}, {"measurement": "relative viability", "setting": "[2]; first compound 1.265 µM", "value": 0.609}, {"measurement": "relative viability", "setting": "[2]; first compound 4 µM", "value": 0.333}, {"measurement": "relative viability", "setting": "[3]; first compound 0.002 µM", "value": 0.292}, {"measurement": "relative viability", "setting": "[3]; first compound 0.006325 µM", "value": 0.283}, {"measurement": "relative viability", "setting": "[3]; first compound 0.02 µM", "value": 0.354}, {"measurement": "relative viability", "setting": "[3]; first compound 0.06325 µM", "value": 0.312}, {"measurement": "relative viability", "setting": "[3]; first compound 0.2 µM", "value": 0.344}, {"measurement": "relative viability", "setting": "[4]; first compound 0.002 µM", "value": 0.501}, {"measurement": "relative viability", "setting": "[4]; first compound 0.006325 µM", "value": 0.482}, {"measurement": "relative viability", "setting": "[4]; first compound 0.02 µM", "value": 0.481}, {"measurement": "relative viability", "setting": "[4]; first compound 0.06325 µM", "value": 0.522}, {"measurement": "relative viability", "setting": "[4]; first compound 0.2 µM", "value": 0.487}]}]}
